Measurements as given in US6335320B1, “Method of treating fibrotic conditions” (UCB S.A., priority 1998, dated 2002).
No end group written: not given here.

Assays:
[1] = test system: SM cells; conditions: culture of SM cells, microinjection; cited from earlier work
[2] = test system: splinted wound; assay: Open splinted wound contraction model in rats; assay type: in vivo, rat; conditions: topical
Text: Test upon an open “splinted Wound” in Rats
In order to measure exclusively contraction, the inventors have developed the “splinted wound” model, based upon the technique of Gabbiani G. et al., J. of Exp.
The wound 2×2 cm in the back of the rat is fixed by suturing its margins to a plastic frame using suture thread (Supramid, metric 3, Braun, Emmenbrücke) on day 0. […] The peptidic product is applied on the open wound starting at the 7th day usually for 3 days and releases the suture of the frame, thus allowing an accelerated contraction which in controls reduces the area of the wound of about ⅔ within 48 hours.
We have measured morphometrically the contraction of the wound (5 rats per group) by means of planimetry (KS 400, Zeiss Vision) and studied the tissues morphologically by means of histological techniques, immunofluorescence with the α-SM actin antibody according to a method described in Gabbiani et al., J. Exp. Med. 1972 (p.15, line 8) and Darby et al. Lab. Invest. 1990 (p.1, line 24-25).
Table 3 presents the wound size (surface in cm^2) measured on day 3 as a percentage of the wound size measured on day 0.
The rats were treated with the peptidic product of example 1 at a dose of 3 mg/ml (mg of peptidic product, ml of 0.9% NaCl).

[3] = test system: α-SM actin; assay: Effect on α-SM actin biosynthesis (S35 methionine incorporation) in VSMC; assay type: cell-based, rat; conditions: for α-SM actin synthesis, control standardised at 100%: 2 mg/ml, VSMC, 37° C.
Procedure: In this table, the values of the control conditions were standardised at a 100% starting value (time=0 hour).

[4] = test system: anti-alpha SM-1; conditions: cited from earlier work

Substance: Acetyl-glutamyl-glutamyl-glutamyl-aspartyl (Ac-EEED) [AcEEED]
- incorporation of α-SM actin into stress fibers [1]: inhibits the incorporation of α-SM actin into stress fibers

Substance: ε-(Acetyl Glu Glu Glu Asp) Lys Arg Gln Ile Lys Ile Trp Phe Gln Asn Arg Arg Met Lys Trp Lys Lys OH [example 1, ε-(AcEEED)-K-(pAntp[43-58])]
- contractile activity of the wound ([2]; 3 mg/ml): decrease in contractile activity
- Wound surface: wound size on day 3 as a percentage of the wound size on day 0 ([2]; 3 mg/ml in 0.9% NaCl, 5 rats per group): 48.42 ± 2.02%
- α-SM actin synthesis, control standardised at 100% ([3]; Experiment 1, 20 hours): 72%
- α-SM actin synthesis, control standardised at 100% ([3]; Experiment 2, 20 hours): 56%
- α-SM actin synthesis, control standardised at 100% ([3]; Experiment 3, 20 hours): 44%
- α-SM actin synthesis, control standardised at 100% ([3]; Experiment 4, 20 hours): 48%
- α-SM actin synthesis, control standardised at 100% ([3]; Mean of 4 experiments, 20 hours): 55%
- decrease of the α-SM actin synthesis compared to control conditions ([3]; mean value for the 4 experiments, 2 mg/ml culture medium): 55%

Substance: AcEEEDSTALVC (Ac-EEEDSTALVC) [amino terminal decapeptide of α-SM actin]
- blocking effects on the binding of monoclonal antibody anti-alpha SM-1 [4]: blocking effects
